Measured values as given in patent publication US20250120932A1, “PHARMACEUTICAL COMPOSITION” (NEUROPRO THERAPEUTICS, INC., priority 2021, published 2025).

Assays:
in vitro = settings: human; for recovery at 2 h: Caco-2, pH 7.4, Mean % Solution Recovery A to B
Method: (§1) Caco-2 cells purchased from ATCC were seeded onto […] (PET) in 96-well Corning Insert plates at 1×10^5 cells/cm^2, and refreshed medium every 4˜5 days until to the 21st to 28th day for confluent cell monolayer formation.
(§2) The transport buffer in the study was HBSS with 10.0 mM HEPES at pH 7.40±0.05. Test compound was tested at 2.00 μM bi-directionally in duplicate. Digoxin was tested at 10.0 μM bi-directionally in duplicate, while nadolol and metoprolol were tested at 2.00 μM in A to B direction in duplicate. Final DMSO concentration was adjusted to less than 1%. The plate was incubated for 2 hours in CO2 incubator at 37±1° C., with 5% CO2 at saturated humidity without shaking. And all samples after mixed with acetonitrile containing internal standard were centrifuged at 3200×g for 10 min. For nadolol and metoprolol, 200 μL supernatant solution was diluted with 600 μL ultra-pure water for LC-MS/MS analysis. For digoxin and test compounds, 200 μL supernatant solution was diluted with 200 μL ultra-pure water for LC-MS/MS analysis. Concentrations of test and control compounds in starting solution, donor solution, and receiver solution were quantified by LC-MS/MS methodologies, using peak area ratio of analyte/internal standard. After transport assay, lucifer yellow rejection assay was applied to determine the Caco-2 cell monolayer integrity.
(§3) The apparent permeability coefficient Papp (cm/s) was calculated using the equation: […]
(§4) Where dCp/dt is the cumulative concentration of compound in the receiver chamber as a function of time (μM/s); Vr is the solution volume in the receiver chamber (0.075 mL on the apical side, 0.25 mL on the basolateral side); A is the surface area for the transport, i.e. 0.0804 cm^2 for the area of the monolayer; Co is the initial concentration in the donor chamber (μM). The efflux ratio was calculated using the equation: […]
(§5) Percent recovery was calculated using the equation: […]
(§6) Where Vd is the volume in the donor chambers (0.075 mL on the apical side, 0.25 mL on the basolateral side); Ca and Cr are the final concentrations of transport compound in donor and receiver chambers, respectively.

Caco-2 cells = test: in vitro
Method: as §1, §2, §3, §4, §5, §6

[1] = LogP (octanol:water partition coefficient)
Excerpt: Crucial to the efficacy of any treatment by a pharmaceutical composition is the overall systemic bioavailability of the pharmaceutical composition used for said treatment. […] LogP is one measure of lipophyilicity, and is the octal:water partition coefficient expressed as a log ratio of molecule in octanol relative to water after mixing.

[2] = Oral delivery of unformulated Bumetanide Dibenzylamide in Beagle dogs, pharmacokinetics and bioavailability; assay type: in vivo; settings: oral non-formulated Bumetanide Dibenzylamide
[3] = Pharmacokinetic study in cynomolgus monkeys after oral (nasogastric) gavage, sublingual and intravenous administration; assay type: in vivo; settings: monkeys, after SL dosing of Bumetanide Dibenzylamide
Method: A pharmacokinetic study was done in cynomolgus monkeys following single oral (nasogastric) gavage, sublingual, and intravenous administration. […] Calibration curves, blanks, and analytical QCs were prepared in monkey plasma (K2EDTA). The extracts were evaporated to dryness, reconstituted, and then analyzed by LC-MS/MS. The calibration range was 0.250-250 ng/mL for both analytes.
If the criteria for either the calibration curve or the analytical QCs were not met, the analytical run was rejected. […] No deviations were found during the bioanalytical phase of the study conducted by Origin. Calibration curves were derived from the individual analyte to internal standard peak area ratios using the least squared regression of the ratio versus the nominal concentration of the calibration standard, prepared in duplicate. The regression was then used to back-calculate the concentration of each calibration standard, QC sample and study sample. […] Analyst® Software Version 1.6.3 (Applied Biosystems-MDS Sciex), operated with Windows® (Microsoft), was used for instrument control, data acquisition, and peak integrations. Peak area ratios, standard curve regressions, and sample concentration/accuracy values were calculated with Analyst® Software Version 1.6.3. Other results (e.g., mean statistics) were calculated with Excel® (Microsoft).
There was no apparent sex difference for the second formulation. […] A fourth formulation comprising the composition B listed in Table 54 was also administered in monheys.

[4] = Oral SEDDS-formulated versus unformulated Bumetanide amides in rats, blood concentration; assay type: in vivo; settings: male rats
Method: SEDDS-formulated and unformulated Bumetanide Morpholinoamide and Bumetanide Diethylamide were orally administered to rats. The experiment was conducted as described previously in regards to Bumetanide Dibenzylamide. Three male and three female rats at each time point for each of the SEDDS and non-SEDDS treatments were used. […] As this appeared to be experimental error, all female rats were removed from the data.

[5] = Caco-2, pH 7.4, Mean Papp (10^−6 cm/s) A to B
[6] = human, Caco-2, 2 h, 10 μM, pH 7.4

## CC(C)(C)NCC(O)COc1cccc2c1CC(O)C(O)C2 (stereo not drawn) [nadolol, reference compound]
In vitro
  recovery at 2 h: 97%
In vitro; [5]
  Papp A→B at 2 h: 0.0983 ×10⁻⁶ cm/s
In vitro; Caco-2, pH 7.4, Rank Papp
  Papp A→B at 2 h: < 0.5 ×10⁻⁶ cm/s
Caco-2 cells; human, Caco-2, 2 h, pH 7.4
  Mean % Solution Recovery A to B: 98.5%

## C[C@H]1O[C@@H](O[C@H]2[C@@H](O)C[C@H](O[C@H]3[C@@H](O)C[C@H](O[C@H]4CC[C@@]5(C)[C@H](CC[C@@H]6[C@@H]5C[C@@H](O)[C@]5(C)[C@@H](C7=CC(=O)OC7)CC[C@]65O)C4)O[C@@H]3C)O[C@@H]2C)C[C@H](O)[C@@H]1O [Digoxin, reference compound]
In vitro; Caco-2, pH 7.4, Efflux Ratio
  efflux ratio at 2 h, 10 μM: 586
In vitro
  recovery at 2 h: 94.7%
In vitro; Caco-2, pH 7.4, Mean % Solution Recovery B to A
  recovery at 2 h, 10 μM: 108%
In vitro; [5]
  Papp A→B at 2 h: 0.0223 ×10⁻⁶ cm/s
In vitro; Caco-2, pH 7.4, Mean Papp (10^−6 cm/s) B to A
  Papp B→A at 2 h, 10 μM: 13.1 ×10⁻⁶ cm/s
In vitro; Caco-2, pH 7.4, Rank Papp
  Papp A→B at 2 h: < 0.5 ×10⁻⁶ cm/s
Caco-2 cells; Caco-2
  Rank Efflux Transporter Substrate: Likely
Caco-2 cells; [6]
  Efflux Ratio: 800
  Mean % Solution Recovery B to A: 103.4%
Caco-2 cells; human, Caco-2, 2 h, pH 7.4
  Mean % Solution Recovery A to B: 97.4%

## CCCCNc1cc(C(=O)N(CC)CC)cc(S(N)(=O)=O)c1Oc1ccccc1 [Bumetanide Diethylamide]
Caco-2 cells; Caco-2, A to B, second Table 73 (diethylamide run)
  Mean % Solution Recovery A to B: 77.4%
Caco-2 cells; Caco-2, A to B, test compound 2.00 μM (digoxin 10.0 μM), 2 hours, HBSS pH 7.40, second Table 73 (diethylamide run)
  Mean Papp (10^−6 cm/s) A to B: 1.33 10^−6 cm/s
Caco-2 cells; Caco-2, B to A / A to B, second Table 73 (diethylamide run)
  Efflux Ratio: 31.6
Caco-2 cells; Caco-2, B to A, second Table 73 (diethylamide run)
  Mean % Solution Recovery B to A: 88.5%
Caco-2 cells; Caco-2, B to A, test compound 2.00 μM (digoxin 10.0 μM), 2 hours, HBSS pH 7.40, second Table 73 (diethylamide run)
  Mean Papp (10^−6 cm/s) B to A: 42.0 10^−6 cm/s
Caco-2 cells; Caco-2 efflux ratio rank, second Table 73 (diethylamide run)
  Rank Efflux Transporter Substrate: Likely
Caco-2 cells; Caco-2 permeability rank, second Table 73 (diethylamide run)
  Rank Papp: Moderate (Moderate permeability: 0.500<Papp<2.50 (×10^−6 cm/s))
[1]; octanol:water partition coefficient
  logP: 3.11

## CCCCNc1cc(C(=O)O)cc(S(N)(=O)=O)c1Oc1ccccc1 [Bumetanide, reference compound]
[2]
  Bumetanide levels: not measureable
[3]
  plasma concentrations of Bumetanide: no measurable concentrations
[1]
  logP: ~2.61

## COCCc1ccc(OCC(O)CNC(C)C)cc1 (stereo not drawn) [metoprolol, reference compound]
In vitro
  recovery at 2 h: 94.7%
In vitro; [5]
  Papp A→B at 2 h: 19.2 ×10⁻⁶ cm/s
In vitro; Caco-2, pH 7.4, Rank Papp
  Papp A→B at 2 h: > 2.5 ×10⁻⁶ cm/s
Caco-2 cells; human, Caco-2, 2 h, pH 7.4
  Mean % Solution Recovery A to B: 95.7%

## CCCCNc1cc(C(=O)N2CCOCC2)cc(S(N)(=O)=O)c1Oc1ccccc1 [Bumetanide morpholinoamide unformulated]
Caco-2 cells; Caco-2
  Efflux Ratio: 43.8
  Mean % Solution Recovery A to B: 87.4%
  Mean % Solution Recovery B to A: 99.6%
  Rank Efflux Transporter Substrate: Likely
Caco-2 cells; Caco-2, pH 7.4
  Mean Papp (10^−6 cm/s) A to B: 0.709 10^−6 cm/s
  Mean Papp (10^−6 cm/s) B to A: 31.0 10^−6 cm/s

## CCCCNc1cc(C(=O)N2CCOCC2)cc(S(N)(=O)=O)c1Oc1ccccc1 [Bumetanide Morpholinoamide]
[4]
  blood concentration by 24 hrs: no detectable concentration

## CCCCNc1cc(C(=O)N(Cc2ccccc2)Cc2ccccc2)cc(S(N)(=O)=O)c1Oc1ccccc1 [Bumetanide Dibenzylamide unformulated]
Caco-2 cells; Caco-2
  Efflux Ratio: >0.825
  Mean % Solution Recovery A to B: <4.9%
  Mean % Solution Recovery B to A: 25.4%
  Rank Efflux Transporter Substrate: Poor or non-
Caco-2 cells; Caco-2, pH 7.4
  Mean Papp (10^−6 cm/s) A to B: <0.480 10^−6 cm/s
  Mean Papp (10^−6 cm/s) B to A: 0.396 10^−6 cm/s
